Results on 20 compounds are retold here after PMC6273621, “Synthesis and the Biological Activity of Phosphonylated 1,2,3-Triazolenaphthalimide Conjugates” (Molecules, 2016).

Data set [1] has as its system human cervix carcinoma cells (HeLa). The data set can be described thus: Cytostatic activity, HeLa cell proliferation. The following applies: 72 h, read-out: IC50 HeLa. The class given is cell-based. Here is the method:
(§1) All assays were performed in 96-well microtiter plates. To each well were added (5–7.5) × 10^4 tumor cells and a given amount of the test compound. The cells were allowed to proliferate for 48 h (murine leukemia L1210 cells) or 72 h (human lymphocytic CEM and human cervix carcinoma HeLa cells) at 37 °C in a humidified CO2-controlled atmosphere. At the end of the incubation period, the cells were counted in a Coulter counter.

The test system of data set [2] is murine leukemia (L1210) cells. Kind of data set: Cytostatic activity, L1210 cell proliferation. The class given is cell-based. The following applies: Mus musculus, read-out: IC50 L1210. Here is the method:
as §1

Data set [3] relates to human dermal microvascular endothelial HMEC-1 cells. The data set can be described thus: Cytostatic activity, HMEC-1 cell proliferation. The class given is cell-based.
The test system of data set [4] is human T-lymphocyte (CEM) cells. The data set can be described thus: Cytostatic activity, CEM cell proliferation. The class given is cell-based. The following applies: CCRF-CEM, 72 h, read-out: IC50 CEM. The procedure:
as §1

Like-named read-outs stand apart in the source and are kept apart here.

Compound `C#CCN1C(=O)c2cccc3cccc(c23)C1=O` [Compound 7, 2-(Prop-2-yn-1-yl)-1H-benzo[de]isoquinoline-1,3(2H)-dione] yielded a melting point of 239 to 240 °C. Further, the half-maximal inhibitory concentration (IC50) in data set [1] (cell proliferation) is 48 ± 8 µM. In data set [2] (L1210, cell proliferation, 48 h), the IC50 is > 250 µM. In addition, the half-inhibitory concentration (IC50) in data set [3] (HMEC-1, cell proliferation, read-out: IC50 HMEC-1) was 138 ± 38 µM. In addition, in data set [4] (cell proliferation), the 50% inhibitory concentration (IC50) is 206 ± 42 µM.
In the case of `CCOP(=O)(Cn1cc(CN2C(=O)c3cccc4cccc(c34)C2=O)nn1)OCC` [Compound 14a], the melting point lay in the range of 110 to 111 °C. Besides, the IC50 in data set [1] is > 250 µM. Further, the IC50 in data set [2] (L1210, 48 h) was > 250 µM. For the same compound, the concentration for half-maximal inhibition (IC50) in data set [3] (HMEC-1, read-out: IC50 HMEC-1) was > 250 µM. Also, the IC50 in data set [4] was 187 ± 25 µM.
In turn, `CCOP(=O)(CCn1cc(CN2C(=O)c3cccc4cccc(c34)C2=O)nn1)OCC` [Compound 14b, Diethyl 2-{4-[(1,3-Dioxo-1H-benzo[de]isoquinolin-2(3H)-yl)methyl]-1H-1,2,3-triazol-1-yl}ethylphosphonate] came in with a melting point of 63 to 64 °C. In addition, in data set [1], the half-maximal inhibitory concentration (IC50) amounted to 204 ± 65 µM. Besides, the IC50 in data set [2] (L1210, 48 h) is > 250 µM. In data set [3] (HMEC-1, read-out: IC50 HMEC-1), the IC50 was > 250 µM. Also, in data set [4], the IC50 came out at 148 ± 59 µM.
`CCOP(=O)(CC(O)Cn1cc(CN2C(=O)c3cccc4cccc(c34)C2=O)nn1)OCC` (stereo not shown) [Compound 14f, Diethyl 3-{4-[(1,3-Dioxo-1H-benzo[de]isoquinolin-2(3H)-yl)methyl]-1H-1,2,3-triazol-1-yl}-2-hydroxypropylphosphonate]: the melting point was > 260 °C. Besides, the half-maximal inhibitory concentration (IC50) in data set [1] worked out at 168 ± 26 µM. For the same compound, the IC50 in data set [2] (L1210, 48 h) is > 250 µM. Besides, the half-maximal inhibitory concentration (IC50) in data set [3] (HMEC-1, read-out: IC50 HMEC-1) is > 250 µM. Moreover, the IC50 in data set [4] amounted to 158 ± 4 µM.
Turning to `CCOP(=O)(COCCn1cc(CN2C(=O)c3cccc4cccc(c34)C2=O)nn1)OCC` [Compound 14g, Diethyl 2-{4-[(1,3-Dioxo-1H-benzo[de]isoquinolin-2(3H)-yl)methyl]-1H-1,2,3-triazol-1-yl}ethoxy-methylphosphonate], the melting point was in the range of 154 to 155 °C. In addition, the IC50 in data set [1] came to 215 ± 49 µM. In data set [2] (L1210, 48 h), the concentration for half-maximal inhibition (IC50) was > 250 µM. Moreover, in data set [3] (HMEC-1, read-out: IC50 HMEC-1), the IC50 was ≥ 250 µM. In addition, in data set [4], the IC50 came out at 168 ± 29 µM.
`CCOP(=O)(CNC(=O)Cn1cc(CN2C(=O)c3cccc4cccc(c34)C2=O)nn1)OCC` [Compound 14i, Diethyl 2-{4-[(1,3-Dioxo-1H-benzo[de]isoquinolin-2(3H)-yl)methyl]-1H-1,2,3-triazol-1-yl}acetamido-methylphosphonate] had a melting point of 170 to 171 °C. Besides, the IC50 in data set [1] was > 250 µM. Also, the IC50 in data set [2] (L1210, 48 h) was > 250 µM. In addition, the IC50 in data set [3] (HMEC-1, read-out: IC50 HMEC-1) is > 250 µM. Also, in data set [4], the IC50 was ≥ 250 µM.
As to `CCOP(=O)(Cn1cc(CN2C(=O)c3cccc4c(Br)ccc(c34)C2=O)nn1)OCC` [Compound 15a, Diethyl {4-[(6-Bromo-1,3-dioxo-1H-benzo[de]isoquinolin-2(3H)-yl)methyl]-1H-1,2,3-triazol-1-yl}methylphosphonate], the melting point lay in the range of 158 to 159 °C. Also, in data set [1], the IC50 turned out to be 88 ± 5 µM. Moreover, the half-maximal inhibitory concentration (IC50) in data set [2] (L1210, 48 h) is 28 ± 1 µM. In data set [3] (HMEC-1, read-out: IC50 HMEC-1), the IC50 was determined as 185 ± 40 µM. Besides, the IC50 in data set [4] came out at 60 ± 27 µM.
Turning to `CCOP(=O)(CCCn1cc(CN2C(=O)c3cccc4c(Br)ccc(c34)C2=O)nn1)OCC` [Compound 15c, Diethyl 3-{4-[(6-Bromo-1,3-dioxo-1H-benzo[de]isoquinolin-2(3H)-yl)methyl]-1H-1,2,3-triazol-1-yl}propylphosphonate], the melting point lay in the range of 118 to 120 °C. Besides, the IC50 in data set [1] amounted to 62 ± 1 µM. The half-maximal inhibitory concentration (IC50) in data set [2] (L1210, 48 h) turned out to be 20 ± 3 µM. In data set [3] (HMEC-1, read-out: IC50 HMEC-1), the IC50 was determined as 152 µM. Moreover, the IC50 in data set [4] turned out to be 52 ± 34 µM.
For `CCOP(=O)(OCC)C(O)Cn1cc(CN2C(=O)c3cccc4c(Br)ccc(c34)C2=O)nn1` (stereo not shown) [Compound 15e, Diethyl 2-{4-[(6-Bromo-1,3-dioxo-1H-benzo[de]isoquinolin-2(3H)-yl)methyl]-1H-1,2,3-triazol-1-yl}-1-hydroxyethylphosphonate] the same measures were 198 to 200 °C, > 250 µM, 42 ± 15 µM, > 250 µM and 196 ± 60 µM.
Consider `CCOP(=O)(COCCn1cc(CN2C(=O)c3cccc4c(Br)ccc(c34)C2=O)nn1)OCC` [Compound 15g, Diethyl 2-{4-[(6-Bromo-1,3-dioxo-1H-benzo[de]isoquinolin-2(3H)-yl)methyl]-1H-1,2,3-triazol-1-yl}ethoxy-methylphosphonate], for which the IC50 amounted to 84 ± 16 µM in data set [1]; 24 ± 3 µM in data set [2] (L1210, 48 h); 152 ± 1 µM in data set [3] (HMEC-1, read-out: IC50 HMEC-1); 66 ± 20 µM in data set [4].
As to `CCOP(=O)(CNC(=O)Cn1cc(CN2C(=O)c3cccc4c(Br)ccc(c34)C2=O)nn1)OCC` [Compound 15i, Diethyl 2-{4-[(6-Bromo-1,3-dioxo-1H-benzo[de]isoquinolin-2(3H)-yl)methyl]-1H-1,2,3-triazol-1-yl}acetamido-methylphosphonate], the melting point lay within 173 to 174 °C. In addition, the IC50 in data set [1] was > 250 µM. Also, the concentration for half-maximal inhibition (IC50) in data set [2] (L1210, 48 h) was 31 ± 2 µM. For the same compound, the IC50 in data set [3] (HMEC-1, read-out: IC50 HMEC-1) is > 250 µM. In addition, the IC50 in data set [4] turned out to be 137 ± 72 µM.
Regarding `CCOP(=O)(Cn1cc(CN2C(=O)c3cccc4cc(N)cc(c34)C2=O)nn1)OCC` [Compound 17a, Diethyl {4-[(5-Amino-1,3-dioxo-1H-benzo[de]isoquinolin-2(3H)-yl)methyl]-1H-1,2,3-triazol-1-yl}methylphosphonate], the IC50 turned out to be 101 ± 78 µM in data set [1]; 177 ± 76 µM in data set [2] (L1210, 48 h); 214 ± 5 µM in data set [4].
The matching figures for `CCOP(=O)(CCn1cc(CN2C(=O)c3cccc4cc(N)cc(c34)C2=O)nn1)OCC` [Compound 17b, Diethyl 2-{4-[(5-Amino-1,3-dioxo-1H-benzo[de]isoquinolin-2(3H)-yl)methyl]-1H-1,2,3-triazol-1-yl}ethylphosphonate]: 69 ± 12 µM, > 250 µM and 120 ± 7 µM.
Consider `CCOP(=O)(CCCn1cc(CN2C(=O)c3cccc4cc(N)cc(c34)C2=O)nn1)OCC` [Compound 17c, Diethyl 3-{4-[(5-Amino-1,3-dioxo-1H-benzo[de]isoquinolin-2(3H)-yl)methyl]-1H-1,2,3-triazol-1-yl}propylphosphonate], for which the melting point fell in the range of 180 to 182 °C. In addition, the half-maximal inhibitory concentration (IC50) in data set [1] was ≥ 250 µM. Further, in data set [2] (L1210, 48 h), the IC50 is > 250 µM. For the same compound, the IC50 in data set [4] is ≥ 250 µM.
On to `CCOP(=O)(CCCCn1cc(CN2C(=O)c3cccc4cc(N)cc(c34)C2=O)nn1)OCC` [Compound 17d, Diethyl 4-{4-[(5-Amino-1,3-dioxo-1H-benzo[de]isoquinolin-2(3H)-yl)methyl]-1H-1,2,3-triazol-1-yl}butylphosphonate], for which the melting point was 218 to 220 °C. In addition, the half-maximal inhibitory concentration (IC50) in data set [1] stood at 116 ± 60 µM. For the same compound, the half-inhibitory concentration (IC50) in data set [2] (L1210, 48 h) was > 250 µM. The IC50 in data set [4] is > 250 µM.
Consider `CCOP(=O)(OCC)C(O)Cn1cc(CN2C(=O)c3cccc4cc(N)cc(c34)C2=O)nn1` (stereo not shown) [Compound 17e, Diethyl 2-{4-[(5-Amino-1,3-dioxo-1H-benzo[de]isoquinolin-2(3H)-yl)methyl]-1H-1,2,3-triazol-1-yl}-1-hydroxyethylphosphonate], for which the melting point fell in the range of 170 to 172 °C. Also, the half-inhibitory concentration (IC50) in data set [1] came out at 72 ± 58 µM. Further, in data set [2] (L1210, 48 h), the half-maximal inhibitory concentration (IC50) is > 250 µM. Further, the IC50 in data set [4] is > 250 µM.
For the compound `CCOP(=O)(CC(O)Cn1cc(CN2C(=O)c3cccc4cc(N)cc(c34)C2=O)nn1)OCC` (stereo not shown) [Compound 17f, Diethyl 3-{4-[(5-Amino-1,3-dioxo-1H-benzo[de]isoquinolin-2(3H)-yl)methyl]-1H-1,2,3-triazol-1-yl}-2-hydroxypropylphosphonate], the melting point lay within 222 to 224 °C. For the same compound, the half-inhibitory concentration (IC50) in data set [1] came out at 130 ± 77 µM. In data set [2] (L1210, 48 h), the IC50 is > 250 µM. The IC50 in data set [4] is > 250 µM.
With `CCOP(=O)(COCCn1cc(CN2C(=O)c3cccc4cc(N)cc(c34)C2=O)nn1)OCC` [Compound 17g, Diethyl 2-{4-[(5-Amino-1,3-dioxo-1H-benzo[de]isoquinolin-2(3H)-yl)methyl]-1H-1,2,3-triazol-1-yl}ethoxy-methylphosphonate], the melting point lay in the range of 221 to 223 °C. In data set [1], the IC50 was found to be 97 ± 42 µM. The half-maximal inhibitory concentration (IC50) in data set [2] (L1210, 48 h) was > 250 µM. Moreover, the IC50 in data set [4] was > 250 µM.
On to `CCOP(=O)(CCOCCn1cc(CN2C(=O)c3cccc4cc(N)cc(c34)C2=O)nn1)OCC` [Compound 17h, Diethyl 2-(2-{4-[(5-Amino-1,3-dioxo-1H-benzo[de]isoquinolin-2(3H)-yl)methyl]-1H-1,2,3-triazol-1-yl}ethoxy)ethylphosphonate], for which the melting point lay in the range of 180 to 183 °C. In addition, the IC50 in data set [1] came to 66 ± 3 µM. Further, the IC50 in data set [2] (L1210, 48 h) came to 142 ± 2 µM. Further, the IC50 in data set [4] worked out at 109 ± 3 µM.
For `CCOP(=O)(CNC(=O)Cn1cc(CN2C(=O)c3cccc4cc(N)cc(c34)C2=O)nn1)OCC` [Compound 17i, Diethyl 2-{4-[(5-Amino-1,3-dioxo-1H-benzo[de]isoquinolin-2(3H)-yl)methyl]-1H-1,2,3-triazol-1-yl}acetamido-methylphosphonate], the melting point was 222 to 224 °C. In addition, in data set [1], the half-inhibitory concentration (IC50) is 112 ± 58 µM. Also, the IC50 in data set [2] (L1210, 48 h) is > 250 µM. Besides, the half-maximal inhibitory concentration (IC50) in data set [4] was > 250 µM.
